Measurements as given in patent US12077503B2, “Substituted cyclic amides and their use as herbicides” (FMC CORPORATION, priority 2015, dated 2024).

Columns and labels:
Type in all cases: in vivo
[1] = test system: green foxtail (Setaria viridis); assay: Test A preemergence; details: for Foxtail, Green plant response rating: 31 g ai/ha, 0 to 100 scale where 0 is no effect and 100 is complete control; for Plant response rating, Foxtail, Green: 125 g ai/ha, 0 to 100 scale (0 no effect, 100 complete control)
Outline: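 Seeds sprayed preemergence with a directed soil spray, or plants at 2 to 10 cm height and one- to two-leaf stage sprayed postemergence, with test chemicals in a non-phytotoxic solvent mixture containing surfactant, in loam soil–sand blend. Injury rated visually against untreated controls after about 10 d in greenhouse, 0 (no effect) to 100 (complete control).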

[2] = test system: waterplantain (common waterplantain, Alisma plantago-aquatica); assay: Test F flooded paddy test; details: Flood
Text: (§1) Plant species in the flooded paddy test consisted of one stand of 9 or 10 water seeded rice seedlings (Rice, W. S. Jap, Oryza sativa cv. ‘Japonica—M202’ or Rice, W. S. Ind, ‘Indica’), and two stands of 3 or 4 transplanted rice seedlings (Oryza sativa cv. ‘Japonica—M202’), Monochoria (Monochoria vaginalis), sedge, umbrella (small-flower umbrella sedge, Cyperus difformis), hardstem bulrush (Scirpus juncoides), redstem (purple redstem, Ammannia coccinea), rice flatsedge (Cyperus iria), bearded sprangletop (Leptochloa fascicularis), barnyardgrass (Echinochloa crus-galli), waterplantain (common waterplantain, Alisma plantago-aquatica), and late watergrass (Echinochloa oryzicola) grown to the 2 to 2.5 leaf stage for testing. Potted plants were grown in a greenhouse with day/night temperature settings of 30/27° C., and supplemental balanced lighting was provided to maintain a 16-hour photoperiod. At time of treatment, test pots were flooded to 3 cm above the soil surface, treated by application of test compounds directly to the paddy water, and then maintained at that water depth for the duration of the test. Effects of treatments on rice and weeds were visually evaluated by comparison to untreated controls after 21 d. Plant response ratings, summarized in Table F, are based on a scale of 0 to 100 where 0 is no effect and 100 is complete control. A dash (-) response means no test result.

[3] = test system: redstem (purple redstem, Ammannia coccinea); assay: Test F flooded paddy test; details: Flood
Text: as §1

[4] = test system: Monochoria (Monochoria vaginalis); assay: Test F flooded paddy test; set-up: key: 0 = no effect, 100 = complete control; details: Flood
[5] = test system: late watergrass (Echinochloa oryzicola); assay: Test F flooded paddy test; set-up: key: 0 = no effect, 100 = complete control; details: Flood
[6] = test system: water seeded rice seedlings (Rice, W. S. Jap, Oryza sativa cv. ‘Japonica—M202’); assay: Test F flooded paddy test; set-up: key: 0 = no effect, 100 = complete control; details: Flood
[7] = test system: bearded sprangletop (Leptochloa fascicularis); assay: Test F flooded paddy test; set-up: key: 0 = no effect, 100 = complete control; details: Flood
[8] = test system: rice flatsedge (Cyperus iria); assay: Test F flooded paddy test; set-up: key: 0 = no effect, 100 = complete control; details: Flood
[9] = test system: corn (Zea mays); assay: Test G Pre-Emergence Protocol; details: Zea mays, pre-emergence, 312 h, evaluated after 13 days; for plant injury at 15.625 g/ha: 15.625 g ai/ha; for plant injury at 15.625 g/ha / plant injury at 250 g/ha: read-out: Corn damage rating (100=total damage to plant; 0=no damage to plant); for plant injury at 62.5 g/ha: 62.5 g ai/ha, 100=total damage to plant, 0=no damage to plant, read-out: plant damage rating, Corn; for plant injury at 250 g/ha: 250 g ai/ha
Procedure: (§2) Seeds of corn (Zea mays), giant foxtail (Setaria faberi), barnyardgrass (Echinochloa crus-galli), ivy-leaved morning glory (Ipomoea hederacea), redroot pigweed (Amaranthus retroflexus) and velvetleaf (Abutilon theophrasti) were sown in standard soil in pots. After cultivation for one day under controlled conditions in a glasshouse (at 24/16° C., day/night; 14 hours light; 65% humidity), the plants were sprayed with an aqueous spray solution derived from the formulation of the technical active ingredient in acetone/water (50:50) solution containing 0.5% Tween 20 (polyoxyethylene sorbitan monolaurate, CAS RN 9005-64-5) to give a final dose of 15.625, 62.5 or 250 g/ha of test compound.
(§3) The test plants were then grown on under controlled conditions in a glasshouse (at 24/16° C., day/night; 14 hours light; 65% humidity) and watered twice daily. After 13 days the test was evaluated (100=total damage to plant; 0=no damage to plant). A dash (-) means no test result.

[10] = test system: redroot pigweed (Amaranthus retroflexus); assay: Test G Pre-Emergence Protocol; details: Amaranthus retroflexus, pre-emergence, 312 h, evaluated after 13 days; for pest or weed control at 15.625 g/ha: 15.625 g ai/ha; for pest or weed control at 15.625 g/ha / pest or weed control at 250 g/ha: read-out: Pigweed, Redroot damage rating (100=total damage to plant; 0=no damage to plant); for pest or weed control at 62.5 g/ha: 62.5 g ai/ha, 100=total damage to plant, 0=no damage to plant, read-out: plant damage rating, Pigweed, Redroot; for pest or weed control at 250 g/ha: 250 g ai/ha
Procedure: as §2, §3

[11] = test system: giant foxtail (Setaria faberi); assay: Test G Pre-Emergence Protocol; details: Setaria faberi, pre-emergence, 312 h, evaluated after 13 days; for pest or weed control at 15.625 g/ha: 15.625 g ai/ha; for pest or weed control at 15.625 g/ha / pest or weed control at 250 g/ha: read-out: Foxtail, Giant damage rating (100=total damage to plant; 0=no damage to plant); for pest or weed control at 62.5 g/ha: 62.5 g ai/ha, 100=total damage to plant, 0=no damage to plant, read-out: plant damage rating, Foxtail, Giant; for pest or weed control at 250 g/ha: 250 g ai/ha
Procedure: as §2, §3

[12] = test system: ivy-leaved morning glory (Ipomoea hederacea); assay: Test G Pre-Emergence Protocol; details: Ipomoea, pre-emergence, 312 h, evaluated after 13 days; for pest or weed control at 15.625 g/ha: 15.625 g ai/ha, read-out: Morning-glory, Ivy-leaved damage rating (100=total damage to plant; 0=no damage to plant); for pest or weed control at 62.5 g/ha: 62.5 g ai/ha, 100=total damage to plant, 0=no damage to plant, read-out: plant damage rating, Morningglory, Ivy-leaved; for pest or weed control at 250 g/ha: 250 g ai/ha, read-out: Morningglory, Ivy-leaved damage rating (100=total damage to plant; 0=no damage to plant)
Procedure: as §2, §3

CN1C[C@H](c2csc3c2CCC(F)(F)C3)[C@@H](C(=O)Nc2ccc(F)c(F)c2F)C1=O (racemic) [Compound 1368]
Foxtail, Green plant response rating [1]: 0
Plant response rating, Foxtail, Green [1]: 100

CN1C[C@H](c2csc3c2CCC(F)(F)C3)[C@@H](C(=O)Nc2cccc(F)c2F)C1=O (racemic) [Compound 1369]
Foxtail, Green plant response rating [1]: 20
Plant response rating, Foxtail, Green [1]: 100

Cc1ccc(C2CN(C)C(=O)C2C(=O)Nc2ccccc2F)cc1F (stereo not drawn) [Compound 465]
Plant response rating: Waterplantain ([2]; 32 g ai/ha): 0
Plant response rating: Waterplantain ([2]; 64 g ai/ha): 40
Plant response rating: Waterplantain ([2]; 125 g ai/ha): 90
Plant response rating: Waterplantain ([2]; 250 g ai/ha): 100
Plant response rating: Redstem ([3]; 32 g ai/ha): 0
Plant response rating: Redstem ([3]; 64 g ai/ha): 0
Plant response rating: Redstem ([3]; 125 g ai/ha): 0
Plant response rating: Redstem ([3]; 250 g ai/ha): 45
Plant response rating: Monochoria ([4]; 32 g ai/ha): 50
Plant response rating: Monochoria ([4]; 64 g ai/ha): 75
Plant response rating: Monochoria ([4]; 125 g ai/ha): 100
Plant response rating: Monochoria ([4]; 250 g ai/ha): 100
Plant response rating: Watergrass, Late ([5]; 32 g ai/ha): 85
Plant response rating: Watergrass, Late ([5]; 64 g ai/ha): 00
Plant response rating: Watergrass, Late ([5]; 125 g ai/ha): 100
Plant response rating: Watergrass, Late ([5]; 250 g ai/ha): 100
Plant response rating: Rice, Water Seeded ([6]; 32 g ai/ha): 0
Plant response rating: Rice, Water Seed. ([6]; 64 g ai/ha): 0
Plant response rating: Rice, Water Seed. ([6]; 125 g ai/ha): 35
Plant response rating: Rice, Water Seeded ([6]; 250 g ai/ha): 60
Plant response rating: Sprangletop, Brdd. ([7]; 32 g ai/ha): 85
Plant response rating: Sprangletop, Brdd. ([7]; 64 g ai/ha): 85
Plant response rating: Sprangletop, Brdd. ([7]; 125 g ai/ha): 95
Plant response rating: Sprangletop, Brdd. ([7]; 250 g ai/ha): 95
Plant response rating: Flatsedge, Rice ([8]; 32 g ai/ha): 0
Plant response rating: Flatsedge, Rice ([8]; 64 g ai/ha): 0
Plant response rating: Flatsedge, Rice ([8]; 125 g ai/ha): 0
Plant response rating: Flatsedge, Rice ([8]; 250 g ai/ha): 0

CN1CC(c2cccc(OC(F)F)c2)C(C(=O)Nc2ccc(F)cc2F)C1=O (stereo not drawn) [Compound 617]
Plant response rating: Waterplantain ([2]; 32 g ai/ha): 0
Plant response rating: Waterplantain ([2]; 64 g ai/ha): 75
Plant response rating: Waterplantain ([2]; 125 g ai/ha): 85
Plant response rating: Waterplantain ([2]; 250 g ai/ha): 90
Plant response rating: Redstem ([3]; 32 g ai/ha): 0
Plant response rating: Redstem ([3]; 64 g ai/ha): 0
Plant response rating: Redstem ([3]; 125 g ai/ha): 0
Plant response rating: Redstem ([3]; 250 g ai/ha): 0
Plant response rating: Monochoria ([4]; 32 g ai/ha): 0
Plant response rating: Monochoria ([4]; 64 g ai/ha): 40
Plant response rating: Monochoria ([4]; 125 g ai/ha): 70
Plant response rating: Monochoria ([4]; 250 g ai/ha): 100
Plant response rating: Watergrass, Late ([5]; 32 g ai/ha): 100
Plant response rating: Watergrass, Late ([5]; 64 g ai/ha): 100
Plant response rating: Watergrass, Late ([5]; 125 g ai/ha): 100
Plant response rating: Watergrass, Late ([5]; 250 g ai/ha): 100
Plant response rating: Rice, Water Seeded ([6]; 32 g ai/ha): 0
Plant response rating: Rice, Water Seed. ([6]; 64 g ai/ha): 0
Plant response rating: Rice, Water Seed. ([6]; 125 g ai/ha): 20
Plant response rating: Rice, Water Seeded ([6]; 250 g ai/ha): 60
Plant response rating: Sprangletop, Brdd. ([7]; 32 g ai/ha): 0
Plant response rating: Sprangletop, Brdd. ([7]; 64 g ai/ha): 80
Plant response rating: Sprangletop, Brdd. ([7]; 125 g ai/ha): 85
Plant response rating: Sprangletop, Brdd. ([7]; 250 g ai/ha): 90
Plant response rating: Flatsedge, Rice ([8]; 32 g ai/ha): 0
Plant response rating: Flatsedge, Rice ([8]; 64 g ai/ha): 0
Plant response rating: Flatsedge, Rice ([8]; 125 g ai/ha): 0
Plant response rating: Flatsedge, Rice ([8]; 250 g ai/ha): 0

CN1C[C@H](c2ccc(C(F)(F)F)cc2)[C@@H](C(=O)Nc2cccnc2F)C1=O [Compound 1396]
plant injury at 15.625 g/ha [9]: 70%
plant injury at 62.5 g/ha [9]: 80%
plant injury at 250 g/ha [9]: 80%
pest or weed control at 15.625 g/ha [10]: 80%
pest or weed control at 62.5 g/ha [10]: 80%
pest or weed control at 250 g/ha [10]: 80%
pest or weed control at 15.625 g/ha [11]: 90%
pest or weed control at 62.5 g/ha [11]: 90%
pest or weed control at 250 g/ha [11]: 100%
pest or weed control at 15.625 g/ha [12]: 0%
pest or weed control at 62.5 g/ha [12]: 70%
pest or weed control at 250 g/ha [12]: 70%

CN1C[C@H](c2ccc(Cl)cc2)[C@@H](C(=O)Nc2cccc(F)n2)C1=O [Compound 1399]
plant injury at 15.625 g/ha [9]: 0%
plant injury at 62.5 g/ha [9]: 10%
plant injury at 250 g/ha [9]: 60%
pest or weed control at 15.625 g/ha [10]: 0%
pest or weed control at 62.5 g/ha [10]: 30%
pest or weed control at 250 g/ha [10]: 80%
pest or weed control at 15.625 g/ha [11]: 90%
pest or weed control at 62.5 g/ha [11]: 90%
pest or weed control at 250 g/ha [11]: 90%
pest or weed control at 15.625 g/ha [12]: 0%
pest or weed control at 62.5 g/ha [12]: 50%
pest or weed control at 250 g/ha [12]: 60%
